# Experimental data reported in US20060110456A1, “Method for biocidal and/or biostatic treatment and compositions therefor” (NATIONAL UNIVERSITY OF SINGAPORE, priority 2004, published 2006).
# “Also recorded” adds a separate entry of the source.
# Tests used:
# [1] = tested on: marine bacteria (ten strains); assay: Bio-adhesion assay (crystal violet microplate); assay type: cell-based, marine bacteria isolated from Singapore fouling communities; details: for Effect of drugs on adhesion of bacteria: 50 μl of 125 μg ml^−1 drug + 200 μl bacteria, 2 hours
# Description: The effect of pharmaceuticals on bacterial adhesion was analyzed using a modified microplate method adapted from Shea and Williamson (1990). This method consists of staining the attached bacteria with crystal violet, releasing the stain with sodium desoxycholate, and measuring the resulting absorbance of the crystal violet. The absorbance is proportional to the degree of bacterial adhesion to the surface.
# Ten strains of bacteria (strain numbers 1, 4, 9, 14, 18, 20, 27, 28, 29 and 30) were chosen for this study. Flat bottom non-tissue culture treated polystyrene (hydrophobic, Falcon #351172) (referred to as polystyrene) and flat bottom tissue culture treated polystyrene (hydrophilic, Falcon #353072) microplates were used in the analyses. These two types of plates were chosen because they were sterile and offered two different kinds of surfaces to determine the adhesion preferences of the bacteria. Each test was done in duplicate. For the control and blank wells, 50 μl of sterile deionized water were added. For those wells that were to contain drugs, 50 μl of drugs at concentration of 125 μg ml^−1 were added. Then 200 μl of bacteria suspension in sterile seawater, whose absorbance had been adjusted to 0.6 at 600 nm using a spectrophotometer (Beckman), were added. Blanks contained 200 μl of sterile seawater.
# The bacteria in suspension were allowed to attach for 2 hours at 28° C. Unattached cells were removed by pipetting out almost all trace of liquid and rinsed three times with 300 μl of sterile seawater each time. The attached cells were stained with 200 μl of crystal violet solution (0.1% w/v) in each well for 5 min. After removing the stain by pipetting, the wells were rinsed twice with 300 μl of sterile deionized water each time. Sodium desoxycholate (200 μl) solution (2% w/v) was then added to each well to extract the crystal violet from the stained cells for 10 min. The absorbance of the extracted solution was read at 590 nm using a microplate reader (Sunrise, Tecan, Switzerland).
# The data were analyzed using T-test (Two-sample assuming unequal variances) to determine the significance of the absorbance values of each bacterial strain versus the blanks to determine whether there was adhesion, i.e. increase in absorbance. Each drug effect on adhesion was analyzed by comparing the absorbance of each bacterial strain minus the control blank versus bacteria in presence of drug minus the drug control. When the data is significant, there are bacterial cells attached to the surface in the control but in the presence of drugs, there is no attachment.
# [2] = in words; cited from earlier work
# barnacle nauplii = assay: Toxicity of drugs under different light conditions and over time (stability in seawater); assay type: in vivo, Balanus amphitrite; details: 25 ug ml^−1 seawater suspension; for Change in toxicity on ageing in seawater, 12L:12D condition: 12 h light and 12 h dark
# Description: Preliminary experiments were carried out to examine the chemical stability of the drugs. 25 ug ml^−1 seawater suspensions of the drugs were prepared, in 3 replicates per condition, 3 replicate tubes containing 15 ml per test tube per prepared for each treatment type. The treatments consisted of: • i. Dark condition: tubes were wrapped in aluminium foil and kept in the dark at all times • ii. 12L:12D condition, where the tubes were subject incubated in a plant growth chamber with light regime of 12 hours light and 12 hours dark. • iii. UV treated tubes were subject to UV for half an hour. […] Sets (1) & (2) were tested at week 0, 1, 2 and after 4 weeks. “UV” set is only assayed after UV treatment. […] Effect of UV
# [3] = tested on: hard fouling (barnacles, serpulids, spirorbids); assay: Field testing of coated rods; assay type: in vivo; parameters: Total hard fouling, difference in mean cover (%), drug vs control / Barnacles, difference in mean cover (%), drug vs control: tested at 25 µg/ml of coating; Serpulids, difference in mean cover (%), drug vs control: tested at 25 µg/ml of coating mix; details: for Overall performance in field assay: crude rank, best (1) to worst (8); for Barnacles, difference in mean cover (%), drug vs VC50 / Serpulids, difference in mean cover (%), drug vs VC50 / Spirorbids, difference in mean cover (%), drug vs VC50 / Total hard fouling, difference in mean cover (%), drug vs VC50: drug + VC50 rods vs VC50 control; for Barnacles, difference in mean cover (%), drug vs control / Serpulids, difference in mean cover (%), drug vs control / Spirorbids, difference in mean cover (%), drug vs control / Total hard fouling, difference in mean cover (%), drug vs control: drug + VC50 rods vs uncoated blank control; for Barnacles Mean cover (%) / Serpulids Mean cover (%) / Spirorbids Mean cover (%) / Total hard fouling Mean cover (%): rods coated with drug + VC50, field test; for Total hard fouling Mean cover (%): percentage cover within 6 mm×50 mm transect
# Description: Fouling on rods occurs more rapidly than on flat panels, enabling rapid assessment of the performance of coatings.
# 6 mm diameter glass rods were cut to 150 mm length and prepared prior to coating by baking in a furnace at 150° C. for 24 hours and then cooling in a dessicator.
# All pharmaceuticals were obtained in commercially available form. All tablets were reduced to fine powder with a mortar and pestle, and capsules were opened to extract the contents. The amount of drug powder required to attain the desired concentrations for all tests was calculated from product dosage information and then measured by weight on a high-resolution electronic balance. This was added to the coating and mixed thoroughly prior to application to obtain the concentration of 25 ug active ingredient per ml of coating mix.
# The commercial antifouling product used to benchmark field experiments was VC Offshore with Teflon® manufactured by International Coatings.
# For our experiments, a reduced copper coating (“VC50”) was prepared by mixing approximately 20 g of #YBA779 into 100 ml of #YBA707. The prepared coating was then allowed to stand so that bubbles from the mixing process dissipated. 15 ml centrifuge tubes were filled with 10 mls of prepared coating. Prepared glass rods were then immersed in the coating to a height of 100 mm and then suspended on a frame to air dry until coating cured.
# Five replicate rods were tested for every experimental treatment, including controls. Two sets of controls were used, an uncoated blank control and a VC50 control without pharmaceutical additives. Rod were randomly arrayed on plastic vexar mesh attached to PVC frames and suspended at a depth of 10 cm from the water surface. […] Rods were examined visually weekly for the duration of testing, which typically lasts between 6 to 10 weeks. All fouling was scored as percentage cover of each category within a 6 mm×50 mm transect on each rod.
# [4] = strain 1 (Rhodovulum), hydrophobic surface (untreated polystyrene)
# [5] = strain 4 (Bacillus), hydrophobic surface (untreated polystyrene)
# [6] = strain 9 (Bacillus), hydrophobic surface (untreated polystyrene)
# [7] = strain 20, hydrophobic surface (untreated polystyrene)
# [8] = strain 27, hydrophobic surface (untreated polystyrene)
# [9] = strain 28, hydrophobic surface (untreated polystyrene)
# [10] = strain 30, hydrophilic surface (tissue culture treated polystyrene)
# [11] = drug at 25 ug per ml of VC50 coating, in words
compound,measurement,setting,value
"CN[C@H]1CC[C@@H](c2ccc(Cl)c(Cl)c2)c2ccccc21.Cl [ZLT, sertraline hydrochloride]",Effect of drugs on adhesion of bacteria,[1]; [4],*** (*** p < 0.005)
same,Effect of drugs on adhesion of bacteria,[1]; [5],*** (*** p < 0.005)
same,Effect of drugs on adhesion of bacteria,[1]; [6],* (Significantly less adhesion observed: * p < 0.05)
same,Effect of drugs on adhesion of bacteria,[1]; [7],*** (*** p < 0.005)
same,Effect of drugs on adhesion of bacteria,[1]; [8],*** (*** p < 0.005)
same,Effect of drugs on adhesion of bacteria,[1]; [9],*** (*** p < 0.005)
same,Effect of drugs on adhesion of bacteria,[1]; [10],*** (*** p < 0.005)
same,Solubility,[2],slightly soluble in water
same,"Change in toxicity on ageing in seawater, 12L:12D condition",barnacle nauplii; after 4 weeks,not altered by any of the treatments applied
same,Effect of UV on drug toxicity to barnacle nauplii,barnacle nauplii; UV for half an hour,not altered by any of the treatments applied
same,"Change in toxicity on ageing in seawater, dark condition",barnacle nauplii; after 4 weeks,not altered by any of the treatments applied
same,Performance against serpulid polychaetes,"[3]; coated rods, in words",higher cover of serpulid and spirorbid polychaetes compared to VC50 alone
same,Performance against spirorbid polychaetes,"[3]; coated rods, in words",higher cover of serpulid and spirorbid polychaetes compared to VC50 alone
same,Overall performance in field assay,[3],8
same,"Barnacles, difference in mean cover (%), drug vs VC50",[3],−11.67%
same,"Serpulids, difference in mean cover (%), drug vs VC50",[3],+1.66%
same,"Spirorbids, difference in mean cover (%), drug vs VC50",[3],+6.67%
same,"Total hard fouling, difference in mean cover (%), drug vs VC50",[3],−3.33%
same,"Barnacles, difference in mean cover (%), drug vs control",[3],−74.67%
same,"Serpulids, difference in mean cover (%), drug vs control",[3],0%
same,"Spirorbids, difference in mean cover (%), drug vs control",[3],+28.33%
same,"Total hard fouling, difference in mean cover (%), drug vs control",[3],−46.33%
same,Reduction of total hard fouling cover compared to VC50 alone,[3]; drug at 25 ug per ml of VC50 coating,3.3%
same,Effect of addition of drug on antifouling performance of VC50 coating (total hard fouling),[3]; [11],did not significantly improve the antifouling performance of VC50
same,Barnacles Mean cover (%),[3],18.33%
same,Serpulids Mean cover (%),[3],3.33%
same,Spirorbids Mean cover (%),[3],30%
same,Total hard fouling Mean cover (%),[3],51.67%
"Cc1cc2c(s1)Nc1ccccc1N=C2N1CCN(C)CC1 [ZPX, olanzapine]",Effect on bacterial adhesion,[1]; polystyrene or tissue culture surface as named in the value,prevented biofilm formation for almost all strains in the polystyrene surface
same,Effect of drugs on adhesion of bacteria,[1]; [4],*** (*** p < 0.005)
same,Effect of drugs on adhesion of bacteria,[1]; [5],* (Significantly less adhesion observed: * p < 0.05)
same,Effect of drugs on adhesion of bacteria,[1]; [6],*** (*** p < 0.005)
same,Effect of drugs on adhesion of bacteria,"[1]; strain 14 (Vibrio), hydrophobic surface (untreated polystyrene)",** (** p < 0.01)
same,Effect of drugs on adhesion of bacteria,"[1]; strain 18 (Microbacterium), hydrophobic surface (untreated polystyrene)",* (Significantly less adhesion observed: * p < 0.05)
same,Effect of drugs on adhesion of bacteria,[1]; [7],*** (*** p < 0.005)
same,Effect of drugs on adhesion of bacteria,[1]; [8],*** (*** p < 0.005)
same,Effect of drugs on adhesion of bacteria,[1]; [9],*** (*** p < 0.005)
same,Effect of drugs on adhesion of bacteria,"[1]; strain 29, hydrophobic surface (untreated polystyrene)",* (Significantly less adhesion observed: * p < 0.05)
same,Effect of drugs on adhesion of bacteria,[1]; [10],* (Significantly less adhesion observed: * p < 0.05)
same,Solubility,[2],practically insoluble in water
same,"Change in toxicity on ageing in seawater, 12L:12D condition",barnacle nauplii; after 4 weeks,marked decrease in toxicity
same,"Total hard fouling, mean cover","[3]; coated rods, 25 ug active ingredient per ml of VC50 coating",17.3%
same,Performance against barnacles,"[3]; coated rods, in words",only significant for barnacles
same,Overall performance in field assay,[3],3
same,"Barnacles, difference in mean cover (%), drug vs VC50",[3],−23.3%
same,"Serpulids, difference in mean cover (%), drug vs VC50",[3],−1.67%
same,"Spirorbids, difference in mean cover (%), drug vs VC50",[3],−12.66%
same,"Total hard fouling, difference in mean cover (%), drug vs VC50",[3],−37.7%
same,"Barnacles, difference in mean cover (%), drug vs control",[3],−86.3%
same,"Serpulids, difference in mean cover (%), drug vs control",[3],−3.33%
same,"Spirorbids, difference in mean cover (%), drug vs control",[3],+9%
same,"Total hard fouling, difference in mean cover (%), drug vs control",[3],−80.7%
same,Effect of addition of drug on antifouling performance of VC50 coating (total hard fouling),[3]; [11],significantly improved performance against total hard fouling; also recorded: significantly improved the performance of VC50 coating
same,Barnacles Mean cover (%),[3],6.67%
same,Serpulids Mean cover (%),[3],0%
same,Spirorbids Mean cover (%),[3],10.67%
same,Total hard fouling Mean cover (%),[3],17.3%
